Data taken from US20250176599A1, “FLAVOR COMPOSITION AND FOOD AND BEVERAGE” (TAKASAGO INTERNATIONAL CORPORATION, priority 2021, published 2025).

Columns and labels:
[1] = Sensory evaluation of aqueous solution I containing (E)-2-nonenal 1 ppb: off-flavor intensity and masking component intensity; conditions: (E)-2-nonenal 1 ppb, average score 0-4
Method in brief: (§1)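 Nootkatone added to degradation-component solutions in ion-exchanged water and scored by eight experienced panelists. Off-flavor rated 0–4 relative to unmasked solution (4) and plain water (0). Masking-component intensity rated on an absolute 0–4 scale.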

[2] = Sensory evaluation of aqueous solution II containing (E)-2-octenal 10 ppb: off-flavor intensity and masking component intensity; conditions: (E)-2-octenal 10 ppb, average score 0-4
Method in brief: as §1

[3] = Sensory evaluation of aqueous solution III containing 1-octen-3-one 1 ppb: off-flavor intensity and masking component intensity; conditions: 1-octen-3-one 1 ppb, average score 0-4
Method in brief: as §1

[4] = Sensory evaluation of aqueous solution IV containing 1,5-octadien-3-one 100 ppt: off-flavor intensity and masking component intensity; conditions: aqueous solution IV, 1,5-octadien-3-one 100 ppt, average score 0-4
Method in brief: as §1

[5] = Sensory evaluation of aqueous solution V containing 1-octen-3-ol 10 ppb: off-flavor intensity and masking component intensity; conditions: 1-octen-3-ol 10 ppb, average score 0-4
Method in brief: as §1

[6] = Sensory evaluation of aqueous solution VI containing 1,5-octadien-3-ol 10 ppb: off-flavor intensity and masking component intensity; conditions: aqueous solution VI, 1,5-octadien-3-ol 10 ppb, average score 0-4
Method in brief: as §1

[7] = Sensory evaluation of degradation component-added mayonnaise I (1-octen-3-ol 200 ppb); conditions: average panel score
Procedure: (§2) To commercially available mayonnaise (“Kewpie Mayonnaise” manufactured by Kewpie Corporation), each degradation component was added to prepare degradation component-added mayonnaises I and II at the concentrations listed in Table 20. To these degradation component-added mayonnaises, oleic acid was added at the concentrations listed in Table 21 to confirm the intensity of the off-flavor (masking effect) and the intensity of the masking components (impact on the flavor of the mayonnaise itself) for each sample.
(§3) Six experienced panelists were selected to conduct a sensory evaluation similar to that of Example 1.

[8] = Overall conclusion of the sensory evaluation across aqueous solutions I to VI
Method in brief: as §1

[9] = Overall conclusion of the sensory evaluation across mayonnaises I and II
Procedure: as §2, §3

CCCCCCCC/C=C\CCCCCCCC(=O)O [Oleic Acid, oleic acid]
Off-Flavor Intensity ([1]; 1 ppm added): 1.8 points
Off-Flavor Intensity ([1]; 5 ppm added): 1.4 points
Off-Flavor Intensity ([1]; 10 ppb added): 3.5 points
Off-Flavor Intensity ([1]; 10 ppm added): 1.3 points
Off-Flavor Intensity ([1]; 50 ppb added): 3.1 points
Off-Flavor Intensity ([1]; 100 ppb added): 2.8 points
Off-Flavor Intensity ([1]; 500 ppb added): 2.4 points
Off-Flavor Intensity ([2]; 1 ppm added): 1.6 points
Off-Flavor Intensity ([2]; 5 ppm added): 1.1 points
Off-Flavor Intensity ([2]; 10 ppb added): 2.8 points
Off-Flavor Intensity ([2]; 10 ppm added): 1.1 points
Off-Flavor Intensity ([2]; 50 ppb added): 2.5 points
Off-Flavor Intensity ([2]; 100 ppb added): 1.9 points
Off-Flavor Intensity ([2]; 500 ppb added): 1.5 points
Off-Flavor Intensity ([3]; 1 ppm added): 2.8 points
Off-Flavor Intensity ([3]; 5 ppm added): 2.4 points
Off-Flavor Intensity ([3]; 10 ppb added): 3.5 points
Off-Flavor Intensity ([3]; 10 ppm added): 1.9 points
Off-Flavor Intensity ([3]; 50 ppb added): 3.4 points
Off-Flavor Intensity ([3]; 100 ppb added): 3.3 points
Off-Flavor Intensity ([3]; 500 ppb added): 2.5 points
Off-Flavor Intensity ([4]; 1 ppm added): 2.0 points
Off-Flavor Intensity ([4]; 5 ppm added): 1.9 points
Off-Flavor Intensity ([4]; 10 ppb added): 3.4 points
Off-Flavor Intensity ([4]; 10 ppm added): 1.5 points
Off-Flavor Intensity ([4]; 50 ppb added): 3.3 points
Off-Flavor Intensity ([4]; 100 ppb added): 2.9 points
Off-Flavor Intensity ([4]; 500 ppb added): 2.5 points
Off-Flavor Intensity ([5]; 1 ppm added): 1.9 points
Off-Flavor Intensity ([5]; 5 ppm added): 1.8 points
Off-Flavor Intensity ([5]; 10 ppb added): 3.4 points
Off-Flavor Intensity ([5]; 10 ppm added): 1.1 points
Off-Flavor Intensity ([5]; 50 ppb added): 2.6 points
Off-Flavor Intensity ([5]; 100 ppb added): 2.9 points
Off-Flavor Intensity ([5]; 500 ppb added): 2.3 points
Off-Flavor Intensity ([6]; 1 ppm added): 1.3 points
Off-Flavor Intensity ([6]; 5 ppm added): 1.5 points
Off-Flavor Intensity ([6]; 10 ppb added): 2.6 points
Off-Flavor Intensity ([6]; 10 ppm added): 1.3 points
Off-Flavor Intensity ([6]; 50 ppb added): 2.4 points
Off-Flavor Intensity ([6]; 100 ppb added): 1.9 points
Off-Flavor Intensity ([6]; 500 ppb added): 1.6 points
Masking Component Intensity ([7]; 1 ppm added): 0.3
Off-Flavor Intensity ([7]; 1 ppm added): 1.8
Masking Component Intensity ([7]; 5 ppm added): 0.7
Off-Flavor Intensity ([7]; 5 ppm added): 1.7
Masking Component Intensity ([7]; 10 ppm added): 0.8
Off-Flavor Intensity ([7]; 10 ppm added): 1.2
Masking Component Intensity ([7]; 50 ppm added): 1.7
Off-Flavor Intensity ([7]; 50 ppm added): 0.8
Masking Component Intensity ([7]; 100 ppb added): 0.0
Off-Flavor Intensity ([7]; 100 ppb added): 3.3
Masking Component Intensity ([7]; 100 ppm added): 2.2
Off-Flavor Intensity ([7]; 100 ppm added): 0.5
Masking Component Intensity ([7]; 500 ppb added): 0.2
Off-Flavor Intensity ([7]; 500 ppb added): 2.5
concentration that masks the off-flavor and does not affect the flavor of the food and/or beverage itself, lower limit [8]: ≥ 10 ppb
concentration that masks the off-flavor and does not affect the flavor of the food and/or beverage itself, upper limit [8]: ≤ 10 ppm
concentration that masks the off-flavor and does not affect the flavor of the mayonnaise itself, lower limit [9]: ≥ 500 ppb
concentration that masks the off-flavor and does not affect the flavor of the mayonnaise itself, upper limit [9]: ≤ 100 ppm
